From US7109193B2, “Tricyclic diazepines tocolytic oxytocin receptor antagonists” (Wyeth, priority 2001, dated 2006)

How the values were obtained:
[1] = molecular target: T1, human vasopressin V1a receptor subtype (Homo sapiens, UniProt P37288); test: Vasopressin binding in Chinese Hamster Ovary cell membranes expressing human vasopressin V1a subtype receptors; conditions: 100 nM, CHO cell membranes, [3H]Manning ligand, values without parentheses
T1 construct: host or cells: CHO cells (pZeoSV vector for the Thibonnier line)
T1 sequence (P37288 whole entry): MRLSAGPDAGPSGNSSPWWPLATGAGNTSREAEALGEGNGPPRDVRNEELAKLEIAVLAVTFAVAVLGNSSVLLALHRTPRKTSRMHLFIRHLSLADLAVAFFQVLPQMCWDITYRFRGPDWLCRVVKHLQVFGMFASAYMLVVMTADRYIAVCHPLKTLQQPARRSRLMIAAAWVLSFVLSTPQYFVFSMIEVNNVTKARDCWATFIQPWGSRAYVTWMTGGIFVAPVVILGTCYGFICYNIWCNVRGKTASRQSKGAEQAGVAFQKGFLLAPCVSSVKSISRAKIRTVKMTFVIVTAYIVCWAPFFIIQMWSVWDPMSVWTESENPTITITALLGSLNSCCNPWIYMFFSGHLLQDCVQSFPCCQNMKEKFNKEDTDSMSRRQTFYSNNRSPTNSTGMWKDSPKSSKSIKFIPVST
In short: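 Membranes from CHO cells expressing human V1a receptor were incubated with [3H]Manning ligand (added as 20 μL of 8 nM) in pH 7.4 Tris buffer with MgCl2, BSA and protease inhibitors, 60 min at room temperature. Bound radioactivity was counted after filtration; values are percent inhibition at a stated concentration or IC50.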

inhibition at 0.1 µM [1] | melting point | SMILES
-11% | 213 to 215 °C | CCOc1ccccc1-c1cc(OC)c(C(=O)N2Cc3cccn3Cc3ccccc32)cc1Cl [Example 17, 10-{[6-Chloro-3-methoxy-2′-ethoxy[1,1′-biphenyl]-4-yl]carbonyl}-10,11-dihydro-5H-pyrrolo[2,1-c][1,4]benzodiazepine]
8% | 197 to 199 °C | Cc1cc(C(=O)N2Cc3cccn3Cc3ccccc32)cc(C)c1-n1c(C)ccc1C [Example 30, [4-(2,5-Dimethyl-1H-pyrrol-1-yl)-3,5-dimethyl-phenyl][10,11-dihydro-5H-pyrrolo[2,1-c][1,4]benzodiazepin-10-yl]methanone]
14% | – | COc1cccc(-c2ccc(C(=O)N3Cc4ccc(C(=O)N5CCN(C)CC5)n4Cc4ccccc43)cc2C)c1 [Example 51, {10-[(3′-Methoxy-2-methyl[1,1′-biphenyl]-4-yl)carbonyl]-10,11-dihydro-5H-pyrrolo[2,1-c][1,4]benzodiazepin-3-yl}(4-methyl-1-piperazinyl)methanone]
51% | – | COc1cc(C(=O)N2Cc3cccn3Cc3ccccc32)ccc1-c1ccccc1C(F)(F)F [Example 19D, (10,11-Dihydro-5H-pyrrolo[2,1-c][1,4]benzodiazepin-10-yl)-(2-methoxy-2′-trifluoromethyl-[1,1′-biphenyl]-4-yl)-methanone]
40% | – | Cc1ccccc1-c1ccc(C(=O)N2Cc3ccc(C(=O)N4CCN(C)CC4)n3Cc3ccccc32)cc1C [Example 50, {10-[(2,2′-Dimethyl[1,1′-biphenyl]-4-yl)carbonyl]-10,11-dihydro-5H-pyrrolo[2,1-c][1,4]benzodiazepin-3-yl}(4-methyl-1-piperazinyl)methanone]

More lines, now with the values behind:

SMILES | inhibition at 0.1 µM [1] | melting point
O=C(c1ccc(-c2ccccc2)nc1)N1Cc2cccn2Cc2ccccc21 [Example 29, (6-Phenyl-pyridin-3-yl)-[10,11-dihydro-5H-pyrrolo[2,1-c][1,4]benzodiazepin-10-yl]methanone] | 74% | 171 to 174 °C
Cc1cc(C(=O)N2Cc3cccn3Cc3ccccc32)ccc1-c1ccncc1 [Example 31, [3-Methyl-4-(4-pyridinyl)phenyl]-[10,11-dihydro-5H-pyrrolo[2,1-c][1,4]benzodiazepin-10-yl]methanone] | 30% | 208 to 210 °C
COc1ccccc1-c1ccc(C(=O)N2Cc3ccc(C(=O)N[C@@H](Cc4c[nH]cn4)C(N)=O)n3Cc3ccccc32)cc1OC [Example 286, N-[(1S)-2-Amino-1-(1H-imidazol-4-ylmethyl)-2-oxoethyl]-10-[(2,2′-dimethoxy[1,1′-biphenyl]-4-yl)carbonyl]-10,11-dihydro-5H-pyrrolo[2,1-c][1,4]benzodiazepine-3-carboxamide] | 8% | –
COc1cc(-c2ccccc2C)c(Cl)cc1C(=O)N1Cc2ccc(C(=O)N[C@@H]3CN4CCC3CC4)n2Cc2ccccc21 [Example 297, N-[(3S)-1-Azabicyclo[2.2.2]oct-3-yl]-10-[(6-chloro-3-methoxy-2′-methyl-[1,1′-biphenyl]-4-yl)carbonyl]-10,11-dihydro-5H-pyrrolo[2,1-c][1,4]benzodiazepine-3-carboxamide] | -2% | –
COc1cc(C(=O)N2Cc3ccc(C(=O)N4CCC(N5CCCC5)CC4)n3Cc3ccccc32)ccc1-n1c(C)ccc1C [Example 313, {10-[4-(2,5-Dimethyl-1H-pyrrol-1-yl)-3-methoxybenzoyl]-10,11-dihydro-5H-pyrrolo[2,1-c][1,4]benzodiazepin-3-yl}[4-(1-pyrrolidinyl)-1-piperidinyl]methanone] | 2% | –
COc1cccc(-c2cc(OC)c(C(=O)N3Cc4ccc(C(=O)N5CCN(C)CC5)n4Cc4ccccc43)cc2Cl)c1 [Example 54, {10-[(6-Chloro-3,3′-dimethoxy[1,1′-biphenyl]-4-yl)carbonyl]-10,11-dihydro-5H-pyrrolo[2,1-c][1,4]benzodiazepin-3-yl}(4-methyl-1-piperazinyl)methanone] | -4% | –
